Experimental data published in US10144715B2, “Piperazine derivatives as liver X receptor modulators” (priority 2014, dated 2018).
Like-named read-outs stand apart in the source and are kept apart here.

What was measured:
[1] = biological target: Gal4 DNA binding domain fused to the LBD of LXRβ in HEK293 cells (Homo sapiens (Human), UniProt P55055); experiment: cell-based
LXR α LBD protein = LXR α LBD protein (Homo sapiens (Human), UniProt Q13133); experiment: LXR α radioligand binding assay (SPA, competition with [3H]TO901317); details: read-out: LXRα Binding Ki
LXR α LBD protein, sequence (Q13133 209-447): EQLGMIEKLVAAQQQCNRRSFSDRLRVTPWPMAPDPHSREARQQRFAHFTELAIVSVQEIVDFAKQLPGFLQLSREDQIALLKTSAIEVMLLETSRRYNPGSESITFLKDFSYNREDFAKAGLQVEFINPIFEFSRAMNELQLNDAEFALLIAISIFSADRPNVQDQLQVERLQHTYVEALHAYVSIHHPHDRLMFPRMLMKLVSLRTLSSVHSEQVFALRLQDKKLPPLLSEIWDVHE

LXR β LBD protein = LXR β LBD protein (Homo sapiens (Human), UniProt P55055); experiment: biochemical; type: binding
LXR β LBD protein, sequence (P55055 222-460 limits assumed): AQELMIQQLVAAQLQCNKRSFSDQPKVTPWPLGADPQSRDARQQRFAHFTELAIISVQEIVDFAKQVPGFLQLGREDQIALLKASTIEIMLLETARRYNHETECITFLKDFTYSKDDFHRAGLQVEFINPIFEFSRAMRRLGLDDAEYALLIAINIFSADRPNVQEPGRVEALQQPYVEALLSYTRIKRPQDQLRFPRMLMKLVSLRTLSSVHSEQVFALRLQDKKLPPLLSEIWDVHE

[2] = biological target: Gal4 DNA binding domain fused to the LBD of LXRα in HEK293 cells (Homo sapiens (Human), UniProt Q13133); experiment: LXR luciferase transcriptional reporter gene assay, agonist mode, LXRα; type: cell-based; details: for EC50: read-out: Cell LXRα EC50
Gal4 DNA binding domain fused to the LBD of LXRα in HEK293 cells, sequence (Q13133 209-447): as the sequence (Q13133 209-447) above

[3] = Biological Test Example 2, agonist mode
[4] = Biological Test Example 1, read-out: LXRβ Binding Ki
[5] = agonist mode, read-out: Cell LXRβ EC50

Gal4 DNA binding domain fused to the LBD of LXRβ in HEK293 cells, sequence (P55055 222-460 limits assumed): as the sequence (P55055 222-460 limits assumed) above

Row | SMILES | Cell LXRβ efficacy [1] | EC50 [1] | Ki (LXR α LBD protein) | Ki (LXR β LBD protein; read-out: LXRβ Binding Ki) | Cell LXRα efficacy [2] | EC50 ([2]; agonist mode) | Cell LXRβ efficacy [1, 3] | Ki (LXR β LBD protein) | EC50 [2] | Ki (LXR β LBD protein; [4]) | EC50 [2, 3] | EC50 ([1]; Biological Test Example 2, agonist mode, read-out: Cell LXRβ EC50) | Cell LXRβ efficacy ([1]; agonist mode) | EC50 [1, 5]
1 | CC(C)[C@@H]1CN(c2ccc(F)c(S(C)(=O)=O)c2)CCN1c1cnc(C(F)(F)F)cn1 [Cpd No 7-44, (R)-2-(4-(4-fluoro-3-(methylsulfonyl)phenyl)-2-isopropylpiperazin-1-yl)-5-(trifluoromethyl)pyrazine] | 19 (118) % | 19 nM | 43 nM | 4 nM | 120 (97) % | 120 nM |  |  |  |  |  |  |  | 
2 | COCCN(C)C(=O)c1cnc(N2CCN(c3ccc(F)c(S(C)(=O)=O)c3)C[C@H]2C(C)C)nc1C [17-26, (R)-2-(4-(4-fluoro-3-(methylsulfonyl)phenyl)-2-isopropylpiperazin-1-yl)-N-(2-methoxyethyl)-N,4-dimethylpyrimidine-5-carboxamide] |  | > 20000 nM | > 3330 nM | 2330 nM |  | > 20000 nM |  |  |  |  |  |  |  | 
3 | CS(=O)(=O)c1cccc(N2CCN(C[C@H]3CCC(C(F)(F)F)OC3)[C@@H](c3ccc(F)cc3)C2)c1 (single isomer, unassigned) [49-10] |  | 376 nM | 438 nM |  | 1575 (67) % |  | 376 (37) % | 53 nM | 1570 nM |  |  |  |  | 
4 | CC(C)[C@@H]1CN(c2ccc(F)c(S(C)(=O)=O)c2)CCN1c1nccc(C(N)=O)n1 [4-5, (R)-2-(4-(4-fluoro-3-(methylsulfonyl)phenyl)-2-isopropylpiperazin-1-yl)pyrimidine-4-carboxamide] | 1723 (24) % | 1720 nM | 3250 nM | 495 nM | 15117 (37) % |  |  |  | 15100 nM |  |  |  |  | 
5 | CN(C)C(=O)c1cnc(N2CCN(c3ccc(F)c(S(C)(=O)=O)c3)C[C@H]2c2ccc(F)cc2)nc1C(F)(F)F [17-33, (R)-2-(4-(4-fluoro-3-(methylsulfonyl)phenyl)-2-(4-fluorophenyl)piperazin-1-yl)-N,N-dimethyl-4-(trifluoromethyl)pyrimidine-5-carboxamide] |  | > 20000 nM | 10600 nM |  |  | > 20000 nM |  | 1220 nM |  |  |  |  |  | 
6 | CS(=O)(=O)c1cccc(N2CCN(C[C@H]3CC[C@@H](C(F)(F)F)OC3)[C@@H](c3ccc(F)cc3)C2)c1 (single isomer, unassigned) [49-9] |  | 575 nM | 1210 nM |  | 1643 (32) % |  | 575 (23) % | 150 nM | 1640 nM |  |  |  |  | 
7 | CC(C)[C@@H]1CN(c2ccc(F)c(S(C)(=O)=O)c2)CCN1c1cncc(C(F)(F)F)n1 [7-45, (R)-2-(4-(4-fluoro-3-(methylsulfonyl)phenyl)-2-isopropylpiperazin-1-yl)-6-(trifluoromethyl)pyrazine] | 136 (71) % | 136 nM | 115 nM | 12 nM | 377 (85) % | 377 nM |  |  |  |  |  |  |  | 
8 | CS(=O)(=O)c1cccc(N2CCN(CC3(F)CCN(CC(F)(F)F)CC3)[C@@H](c3ccccc3)C2)c1 (single isomer, unassigned) [48-53] |  | 711 nM | 2180 nM |  | 2169 (43) % |  | 711 (20) % |  |  | 259 nM | 2170 nM |  |  | 
9 | COCc1ccc(N2CCN(C[C@H]3CC[C@H](C(F)(F)F)CC3)[C@@H](c3ccccc3)C2)cc1S(C)(=O)=O [48-49, (S)-4-(4-(methoxymethyl)-3-(methylsulfonyl)phenyl)-2-phenyl-1-(((1r,4S)-4-(trifluoromethyl)cyclohexyl)methyl)piperazine] |  |  | 13800 nM |  | 9842 (9) % |  | 12% |  | 9840 nM | 1490 nM |  | 1350 nM |  | 
10 | CC(C)[C@@H]1CN(c2ccc(F)c(S(N)(=O)=O)c2)CCN1c1ncc(C(C)(C)O)c(C(F)(F)F)n1 [10-2, (R)-2-fluoro-5-(4-(5-(2-hydroxypropan-2-yl)-4-(trifluoromethyl)pyrimidin-2-yl)-3-isopropylpiperazin-1-yl)benzenesulfonamide] |  | 475 nM | 469 nM | 34 nM | 2692 (45) % | 2690 nM |  |  |  |  |  |  | 475 (39) % | 
11 | CC(C)[C@H]1CN(c2cccc(S(C)(=O)=O)c2)CCN1CC1CCOCC1 [51-2, (S)-2-isopropyl-4-(3-(methylsulfonyl)phenyl)-1-((tetrahydro-2H-pyran-4-yl)methyl)piperazine] |  | 1360 nM | > 3330 nM |  |  |  | 1362 (7) % |  |  | > 2500 nM | > 20000 nM |  |  | 
12 | NS(=O)(=O)c1cccc(N2CCN(CC3CCN(CC(F)(F)F)CC3)[C@H](c3ccccc3)C2)c1 (single isomer, unassigned) [48-82] |  | > 20000 nM | 7400 nM |  |  |  |  |  |  | 2490 nM | > 20000 nM |  |  | 
13 | CC(C)[C@@H]1CN(c2ccc(F)c(S(C)(=O)=O)c2)CCN1c1nc2ncccc2s1 [7-59, (R)-2-(4-(4-fluoro-3-(methylsulfonyl)phenyl)-2-isopropylpiperazin-1-yl)thiazolo[4,5-b]pyridine] | 289 (83) % | 289 nM | 281 nM | 39 nM | 827 (84) % |  |  |  | 827 nM |  |  |  |  | 
14 | CC(C)[C@@H]1CN(c2ccc(F)c(S(C)(=O)=O)c2)CCN1c1nc2ccccc2s1 [7-56, (R)-2-(4-(4-fluoro-3-(methylsulfonyl)phenyl)-2-isopropylpiperazin-1-yl)benzo[d]thiazole] | 99 (51) % | 99 nM | 146 nM | 15 nM | 770 (70) % |  |  |  | 770 nM |  |  |  |  | 
15 | COCCNC(=O)c1cnc(N2CCN(c3ccc(F)c(S(C)(=O)=O)c3)C[C@H]2C(C)C)nc1C(F)(F)F [17-6, (R)-2-(4-(4-fluoro-3-(methylsulfonyl)phenyl)-2-isopropylpiperazin-1-yl)-N-(2-methoxyethyl)-4-(trifluoromethyl)pyrimidine-5-carboxamide] |  | > 20000 nM | > 3330 nM | 532 nM |  | > 20000 nM |  |  |  |  |  |  |  | 
16 | CC(C)[C@@H]1CN(c2ccc(F)c(S(C)(=O)=O)c2)CCN1c1nc(C(F)(F)F)c(C(C)(C)O)o1 [10-8, (R)-2-(2-(4-(4-fluoro-3-(methylsulfonyl)phenyl)-2-isopropylpiperazin-1-yl)-4-(trifluoromethyl)oxazol-5-yl)propan-2-ol] |  | 901 nM | 2190 nM | 132 nM | 4655 (96) % |  |  |  | 4660 nM |  |  |  | 901 (76) % | 
17 | CC(C)[C@H]1CN(c2cccc(S(C)(=O)=O)c2)CCN1CC1CCCOC1 (stereo partly drawn) [Cpd No 51-1, (2S)-2-isopropyl-4-(3-(methylsulfonyl)phenyl)-1-((tetrahydro-2H-pyran-3-yl)methyl)piperazine] | 673 (32) % | 673 nM | > 3330 nM | 1530 nM | 7863 (36) % |  |  |  | 7860 nM |  |  |  |  | 
18 | CC(C)[C@H]1CN(c2ccc(CO)c(S(C)(=O)=O)c2)CCN1C[C@H]1CC[C@H](C(F)(F)F)OC1 (single isomer, unassigned) [Cpd No 49-2] | 78 (83) % | 78 nM | 194 nM | 23 nM | 122 (63) % |  |  |  | 122 nM |  |  |  |  | 
19 | CS(=O)(=O)c1cccc(N2CCN(C[C@H]3CC[C@@](C)(O)CC3)[C@H](c3ccccc3)C2)c1 (single isomer, unassigned) [48-6] |  |  | 30900 nM | > 2500 nM |  |  |  |  | > 20000 nM |  |  |  |  | > 20000 nM
20 | CCOC(=O)c1cnc(N2CCN(c3ccc(-c4nnc(C)s4)c(S(C)(=O)=O)c3)C[C@H]2C(C)C)nc1C(F)(F)F [9-13, ethyl (R)-2-(2-isopropyl-4-(4-(5-methyl-1,3,4-thiadiazol-2-yl)-3-(methylsulfonyl)phenyl)piperazin-1-yl)-4-(trifluoromethyl)pyrimidine-5-carboxylate] |  | 1200 nM | 703 nM | 171 nM | 2862 (21) % | 2860 nM |  |  |  |  |  |  | 1204 (34) % | 
21 | CC(C)[C@@H]1CN(c2ccc(F)c(S(C)(=O)=O)c2)CCN1c1nccc(C#N)n1 [7-7, (R)-2-(4-(4-fluoro-3-(methylsulfonyl)phenyl)-2-isopropylpiperazin-1-yl)pyrimidine-4-carbonitrile] |  | 404 nM | 421 nM | 47 nM | 1467 (69) % | 1470 nM |  |  |  |  |  |  | 404 (60) % | 
22 | CC(=O)NCc1cnc(N2CCN(c3ccc(F)c(S(C)(=O)=O)c3)C[C@H]2C(C)C)nc1C(F)(F)F [54-2, (R)-N-((2-(4-(4-fluoro-3-(methylsulfonyl)phenyl)-2-isopropylpiperazin-1-yl)-4-(trifluoromethyl)pyrimidin-5-yl)methyl)acetamide] |  | 812 nM | 863 nM |  | 3064 (29) % |  | 812 (27) % |  | 3060 nM | 81 nM |  |  |  | 
23 | CS(=O)(=O)c1cc(N2CCN(C[C@H]3CC[C@H](C(F)(F)F)CC3)[C@H](c3ccccc3)C2)ccc1CO (single isomer, unassigned) [48-44] |  |  | 10800 nM | 972 nM | 11556 (50) % |  |  |  | 11600 nM |  |  |  | 34% | 3100 nM
